Source: patent US20220233566A1, “NOVEL CARBONATE COMPOUND HAVING PYRROLOPYRIMIDINE SKELETON OR PHARMACEUTICALLY ACCEPTABLE SALT THEREOF” (TAIHO PHARMACEUTICAL CO., LTD., priority 2019, published 2022)

What was measured:
Type in all cases: cell-based
[1] = Growth suppression activity in human tumor cell line; conditions: 72 h; Human prostate cancer, DUI45, 3 days
Method: (§1) Human tumor cell lines different in type were suspended in mediums, seeded in individual wells of a multi-well plate and cultured. On the day after initiation of culture, serially diluted solutions of a compound were added. Culture was carried out for further 3 days. Cells were counted by a CellTiter-Glo (manufactured by Promega KK) in accordance with the protocol recommended by Promega KK. Cell viability was calculated in accordance with the equation shown below and the concentration (IC50 (μM)) of the compound at which 50% of cell growth is inhibited was obtained.
(§2) T: Intensity of light emitted from a well containing a compound
(§3) C: Intensity of light emitted from a well containing no compound

[2] = system: 786-0; assay: as above; conditions: 72 h; Human renal cancer, 786-0, 3 days
Method: as §1, §2, §3

[3] = system: A2780; assay: as above; conditions: 72 h; Human ovary cancer, A2780, 3 days
Method: as §1, §2, §3

[4] = system: BXPC3; assay: as above; conditions: BXPC-3, 72 h; Human pancreatic cancer, BXPC3, 3 days
Method: as §1, §2, §3

[5] = system: CA9-22; assay: as above; conditions: 72 h; Human head and neck cancer, CA9-22, 3 days
Method: as §1, §2, §3

[6] = system: COL0792; assay: as above; conditions: 72 h; Human skin cancer, COL0792, 3 days
Method: as §1, §2, §3

[7] = system: DLD1; assay: as above; conditions: DLD-1, 72 h; Human colorectal cancer, DLD1, 3 days
Method: as §1, §2, §3

[8] = system: DOK; assay: as above; conditions: 72 h, Human head and neck cancer, 3 days
Method: as §1, §2, §3

[9] = system: H1703; assay: as above; conditions: NCI-H1703, 72 h; Human lung cancer, H1703, 3 days
Method: as §1, §2, §3

[10] = system: H1975; assay: as above; conditions: NCI-H1975, 72 h; Human lung cancer, H1975, 3 days
Method: as §1, §2, §3

[11] = system: H2081; assay: as above; conditions: NCI-H2081, 72 h; Human lung cancer, H2081, 3 days
Method: as §1, §2, §3

[12] = system: H226; assay: as above; conditions: NCI-H226, 72 h; Human lung cancer, H226, 3 days
Method: as §1, §2, §3

[13] = system: H23; assay: as above; conditions: NCI-H23, 72 h; Human lung cancer, H23, 3 days
Method: as §1, §2, §3

[14] = system: H441; assay: as above; conditions: NCI-H441, 72 h; Human lung cancer, H441, 3 days
Method: as §1, §2, §3

[15] = system: H460; assay: as above; conditions: NCI-H460, 72 h; Human lung cancer, H460, 3 days
Method: as §1, §2, §3

[16] = system: H526; assay: as above; conditions: NCI-H526, 72 h; Human lung cancer, H526, 3 days
Method: as §1, §2, §3

[17] = system: H69; assay: as above; conditions: NCI-H69, 72 h; Human lung cancer, H69, 3 days
Method: as §1, §2, §3

[18] = system: HCC1806; assay: as above; conditions: 72 h; Human breast cancer, HCC1806, 3 days
Method: as §1, §2, §3

[19] = system: HCT116; assay: as above; conditions: HCT-116, 72 h; Human colorectal cancer, HCT116, 3 days
Method: as §1, §2, §3

[20] = system: HL60; assay: as above; conditions: HL-60, 72 h; Human hematopoietic organ tumor, HL60, 3 days
Method: as §1, §2, §3

[21] = system: HS746T; assay: as above; conditions: 72 h, Human stomach cancer, 3 days
Method: as §1, §2, §3

[22] = system: HT1376; assay: as above; conditions: HT-1376, 72 h; human bladder cancer, HT1376, 3 days
Method: as §1, §2, §3

[23] = system: HT29; assay: as above; conditions: HT-29, 72 h; Human colorectal cancer, HT29, 3 days
Method: as §1, §2, §3

[24] = system: K562; assay: as above; conditions: 72 h; Human hematopoietic organ tumor, K562, 3 days
Method: as §1, §2, §3

[25] = system: LN229; assay: as above; conditions: LN-229, 72 h; Human brain tumor, LN229, 3 days
Method: as §1, §2, §3

[26] = system: MIAPACA2; assay: as above; conditions: MIA PaCa-2, 72 h; Human pancreatic cancer, MIAPACA2, 3 days
Method: as §1, §2, §3

[27] = system: MOLT4; assay: as above; conditions: MOLT-4, 72 h; Human hematopoietic organ tumor, MOLT4, 3 days
Method: as §1, §2, §3

[28] = system: MV-4-11; assay: as above; conditions: MV4-11, 72 h; Human hematopoietic organ tumor, MV-4-11, 3 days
Method: as §1, §2, §3

[29] = system: Mero82; assay: as above; conditions: 72 h; Human lung cancer, Mero82, 3 days
Method: as §1, §2, §3

[30] = system: N87; assay: as above; conditions: 72 h; Human stomach cancer, N87, 3 days
Method: as §1, §2, §3

[31] = system: RPMI8226; assay: as above; conditions: RPMI-8226, 72 h; Human hematopoietic organ tumor, RPMI8226, 3 days
Method: as §1, §2, §3

[32] = system: SDM103T2; assay: as above; conditions: 72 h; Human lung cancer, SDM103T2, 3 days
Method: as §1, §2, §3

[33] = system: SPC111; assay: as above; conditions: 72 h; Human lung cancer, SPC111, 3 days
Method: as §1, §2, §3

[34] = system: SW48; assay: as above; conditions: 72 h; Human colorectal cancer, SW48, 3 days
Method: as §1, §2, §3

[35] = system: SW620; assay: as above; conditions: SW-620, 72 h; Human colorectal cancer, SW620, 3 days
Method: as §1, §2, §3

IC50 [1]: 0.09 µM | IC50 [2]: 0.22 µM | IC50 [3]: 0.05 µM | IC50 [4]: 0.27 µM | IC50 [5]: 0.08 µM | IC50 [6]: 0.89 µM | IC50 [7]: 0.05 µM | IC50 [8]: 0.11 µM | IC50 [9]: 0.02 µM | IC50 [10]: 0.07 µM | IC50 [11]: 0.09 µM | IC50 [12]: 0.13 µM | IC50 [13]: 0.05 µM | IC50 [14]: 0.14 µM | IC50 [15]: 0.08 µM | IC50 [16]: 0.17 µM | IC50 [17]: 0.11 µM | IC50 [18]: 0.13 µM | IC50 [19]: 0.12 µM | IC50 [20]: 0.3 µM | IC50 [21]: 0.25 µM | IC50 [22]: 0.06 µM | IC50 [23]: 0.11 µM | IC50 [24]: 0.11 µM | IC50 [25]: 0.63 µM | IC50 [26]: 0.07 µM | IC50 [27]: 0.06 µM | IC50 [28]: 0.03 µM | IC50 [29]: 0.46 µM | IC50 [30]: 0.03 µM | IC50 [31]: 0.34 µM | IC50 [32]: 0.58 µM | IC50 [33]: 0.36 µM | IC50 [34]: 0.13 µM | IC50 [35]: 0.23 µM
Structure (SMILES): Nc1ncnc2c1c(Br)cn2[C@@H]1O[C@H](CO)[C@@H](O)[C@@H]1F [Comparative Example 1, (2R,3R,4S,5R)-5-(4-amino-5-bromo-7H-pyrrolo[2,3-d]pyrimidin-7-yl)-4-fluoro-2-(hydroxymethyl) tetrahydrofuran-3-ol]
